This is an account of results in US20160193216A1 (Nimbus Iris, Inc., priority 2012, published 2016).

This experiment deals with T1, IRAK4 (Homo sapiens, UniProt Q9NWZ3).
T1 sequence (Q9NWZ3 1-460): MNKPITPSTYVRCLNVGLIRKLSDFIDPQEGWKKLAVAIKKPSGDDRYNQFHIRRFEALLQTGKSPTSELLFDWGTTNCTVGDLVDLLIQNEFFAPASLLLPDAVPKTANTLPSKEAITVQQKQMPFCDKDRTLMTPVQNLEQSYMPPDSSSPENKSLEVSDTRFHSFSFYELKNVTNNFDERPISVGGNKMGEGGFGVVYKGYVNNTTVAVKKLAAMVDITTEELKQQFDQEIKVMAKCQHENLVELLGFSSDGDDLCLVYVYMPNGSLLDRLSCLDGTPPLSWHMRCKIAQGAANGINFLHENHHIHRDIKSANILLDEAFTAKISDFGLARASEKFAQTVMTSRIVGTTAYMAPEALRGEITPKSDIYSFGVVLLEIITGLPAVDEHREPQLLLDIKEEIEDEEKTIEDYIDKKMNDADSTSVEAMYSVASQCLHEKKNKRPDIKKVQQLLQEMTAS
In words: IRAK-4 activity inhibition assay (Caliper). The note with it: 37 μM ATP, 3.5 nM IRAK4. In kind it is biochemical. As to the method:
A 1× kinase base buffer was prepared from 50 mM HEPES, pH 7.5 and 0.0015% Brij-35. A stop buffer was prepared from 100 mM HEPES, pH 7.5, 0.015% Brij-35, 0.2% Coating Reagent #3, and 50 mM EDTA.
Test compound was diluted to 50× of the final desired highest inhibitor concentration in reaction by 100% DMSO. 100 μl of this compound dilution was transferred to a well in a 96-well plate.
Test compound was serially diluted by transferring 30 μl to 60 μl of 100% DMSO in the next well and so forth for a total of 10 concentrations. 100 μl of 100% DMSO was added to two empty wells for no compound control and no enzyme control in the same 96-well plate.
A new 96-well plate was marked as intermediate plate. 5 μl of compound serial dilution was transferred from source plate to the corresponding wells of the intermediate plate. 45 μl of 1× kinase base buffer (KB buffer) was added to each well of the intermediate plate. The intermediate plate was placed for 10 min on a shaker.
5 μl of each well was transferred from the 96-well intermediate plate to a 384-well plate in duplicates. […] A2 of the 96-well plate is transferred to A3 and A4 of the 384-well plate, and so on.
IRAK4 and DTT in 1× kinase base buffer was added.
Assay plate already contained 5 μl of compound in 10% DMSO. Added 10 μl of 2.5× enzyme solution to each well of the 384-well assay plate, except no enzyme control wells. […] Added 10 μl of 1× kinase base buffer to no enzyme control wells in the assay plate. Incubated at room temperature for 10 min.
Added 10 μl of 2.5× peptide solution to each well of the 384-well assay plate. […] Incubated at 28° C. for 40 minutes. Added 25 μl of stop buffer to stop reaction. Collected data on Caliper.
Copied conversion % data from Caliper program. Converted conversion % values to percent inhibition values. Percent inhibition=(max−conversion %)/(max−min)*100, where “max” means the conversion % of DMSO control and “min” means the conversion % of no enzyme control.
The compound numbers correspond to the compound numbers in Table 1. […] “NA” stands for “not assayed.”

Structures are written as SMILES.

As for `CN(C)[C@H]1CC[C@H](Oc2ncnc3sc4c(c23)[C@@H](CCC(N)=O)CCC4)CC1` [Compound I-163, 3-((R)-4-(((1r,4R)-4-(dimethylamino)cyclohexyl)oxy)-5,6,7,8-tetrahydrobenzo[4,5]thieno[2,3-d]pyrimidin-5-yl)propanamide], the 50% inhibitory concentration (IC50) (as a rule, the concentration that inhibits the measured activity by half) is less than 5 µM.

As for `C[C@@H](O)C[C@H]1CCc2sc3ncnc(O[C@H]4CC[C@H](N(C)C)CC4)c3c21` [Compound I-41, (2R)-1-[(3R)-12-[[4-(dimethylamino)cyclohexyl]oxy]-7-thia-9,11-diazatricyclo[6.4.0.0[2,6]]dodeca-1(8),2(6),9,11-tetraen-3-yl]propan-2-ol], the IC50 was less than 5 µM.

`CN(C)[C@H]1CC[C@H](Oc2ncnc3sc4c(c23)[C@@H](CC(O)c2ncco2)CC4)CC1` (stereo in doubt) [Compound I-62, (1S)-2-[(3R)-12-[[4-(dimethylamino)cyclohexyl]oxy]-7-thia-9,11-diazatricyclo[6.4.0.0[2,6]]dodeca-1(8),2(6),9,11-tetraen-3-yl]-1-(1,3-oxazol-2-yl)ethan-1-ol] registered a concentration for half-maximal inhibition (IC50) of less than 5 µM.

In turn, `CN(CCO)C(=O)CC1CCc2sc3ncnc(N[C@H]4CC[C@H](N(C)C)CC4)c3c21` (some centres unmarked) [Compound I-30, 2-(12-[[4-(dimethylamino)cyclohexyl]amino]-7-thia-9,11-diazatricyclo[6.4.0.0̂[2,6]]dodeca-1(8),2(6),9,11-tetraen-3-yl)-N-(2-hydroxyethyl)-N-methylacetamide] showed an IC50 of 20 to 50 µM.

With `CC(=O)N1Cc2sc3ncnc(O[C@H]4CC[C@H](N5CCOCC5)CC4)c3c2C1` [Compound I-198, 1-(12-[[4-(morpholin-4-yl)cyclohexyl]oxy]-7-thia-4,9,11-triazatricyclo[6.4.0.0[2,6]]dodeca-1(12),2(6),8, 10-tetraen-4-yl)ethan-1-one], the half-maximal inhibitory concentration (IC50) lay in the range of 20 to 50 µM.

`CC[C@H](O)C[C@H]1CCc2sc3ncnc(O[C@H]4CC[C@H](N(C)C)CC4)c3c21` [Compound I-107, (2S)-1-[(3R)-12-[[4-(dimethylamino)cyclohexyl]oxy]-7-thia-9,11-diazatricyclo[6.4.0.0[2,6]]dodeca-1(8),2(6),9,11-tetraen-3-yl]butan-2-ol]: the half-inhibitory concentration (IC50) was less than 5 µM.

`NC(=O)C[C@H]1CCc2sc3ncnc(O[C@H]4CC[C@H](N)CC4)c3c21` [Compound I-150, 2-[(3R)-12-[(4-aminocyclohexyl)oxy]-7-thia-9,11-diazatricyclo[6.4.0.0[2,6]]dodeca-1(12),2(6),8,10-tetraen-3-yl]acetamide] had an IC50 of less than 5 µM.

With `CN(C)[C@H]1CC[C@H](Nc2ncnc3sc4c(c23)C(C(=O)NCCO)CC4)CC1` (some centres unmarked) [Compound I-17, 12-[[4-(dimethylamino)cyclohexyl]amino]-N-(2-hydroxyethyl)-7-thia-9,11-diazatricyclo[6.4.0.0̂[2,6]]dodeca-1(12),2(6),8,10-tetraene-3-carboxamide], the IC50 was less than 5 µM.

The compound `NC(=O)C[C@H]1CCc2sc3ncnc(O[C@H]4CC[C@H](N5CCN(Cc6ccccc6)CC5)CC4)c3c21` [Compound I-122, 2-[(3R)-12-[[4-(4-benzylpiperazin-1-yl)cyclohexyl]oxy]-7-thia-9,11-diazatricyclo[6.4.0.0[2,6]]dodeca-1(12),2(6),8,10-tetraen-3-yl]acetamide] yielded a half-maximal inhibitory concentration (IC50) of less than 5 µM.

`CC(O)C[C@@H]1CCc2sc3ncnc(O[C@H]4CC[C@H](N5CCOCC5)CC4)c3c2C1` (stereo partly drawn) [Compound I-182, 1-((R)-4-(((1r,4R)-4-morpholinocyclohexyl)oxy)-5,6,7,8-tetrahydrobenzo[4,5]thieno[2,3-d]pyrimidin-6-yl)propan-2-ol] registered an IC50 of less than 5 µM.

As for `NC(=O)CC[C@@H]1CCCc2sc3ncnc(O[C@H]4CC[C@H](N)CC4)c3c21` [Compound I-154, 3-((S)-4-(((1r,4S)-4-aminocyclohexyl)oxy)-5,6,7,8-tetrahydrobenzo[4,5]thieno[2,3-d]pyrimidin-5-yl)propanamide], the IC50 was 5 to 20 µM.

`NC(=O)C[C@H]1CCc2sc3ncnc(O[C@H]4CC[C@H](N5CC6(COC6)C5)CC4)c3c21` [Compound I-152, 2-[(3R)-12-[(4-[2-oxa-6-azaspiro[3.3]heptan-6-yl]cyclohexyl)oxy]-7-thia-9,11-diazatricyclo[6.4.0.0[2,6]]dodeca-1(8),2(6),9,11-tetraen-3-yl]acetamide] showed a concentration for half-maximal inhibition (IC50) of less than 5 µM.

Compound `OC[C@H]1CCc2sc3ncnc(N[C@H]4CC[C@H](N5CCOCC5)CC4)c3c2C1` [Compound I-210, [(12S)-3-[[4-(morpholin-4-yl)cyclohexyl]amino]-8-thia-4,6-diazatricyclo[7.4.0.0[2,7]]trideca-2,4,6-trien-12-yl]methanol] gave an IC50 of less than 5 µM.

With `CNC1CCC(Oc2ncnc3sc4c(c23)[C@@H](C[C@H](N)C(N)=O)CC4)CC1` (stereo partly drawn) [Compound I-146, (2S)-2-amino-3-[(3R)-12-[[4-(methylamino)cyclohexyl]oxy]-7-thia-9,11-diazatricyclo[6.4.0.0[2,6]]dodeca-1(8),2(6),9,11-tetraen-3-yl]propanamide], the half-maximal inhibitory concentration (IC50) was less than 5 µM.

Turning to `CC[C@]1(N(C)C)CC[C@H](Oc2ncnc3sc4c(c23)[C@@H](C[C@@H](C)O)CC4)CC1` [Compound I-102, (2R)-1-[(3R)-12-[[4-(dimethylamino)-4-ethylcyclohexyl]oxy]-7-thia-9,11-diazatricyclo[6.4.0.0[2,6]]dodeca-1(12),2(6),8,10-tetraen-3-yl]propan-2-ol], the IC50 was less than 5 µM.

As to `CNC(=O)N1Cc2sc3ncnc(O[C@H]4CC[C@H](N5CCOCC5)CC4)c3c2C1` [Compound I-200, N-methyl-12-[[4-(morpholin-4-yl)cyclohexyl]oxy]-7-thia-4,9, 11-triazatricyclo[6.4.0.0[2,6]]dodeca-1(8),9, 11-triene-4-carboxamide], the 50% inhibitory concentration (IC50) was less than 5 µM.

`c1nc(O[C@H]2CC[C@H](N3CCOCC3)CC2)c2c3c(sc2n1)CNC3` [Compound I-192, 12-[[4-(morpholin-4-yl)cyclohexyl]oxy]-7-thia-4,9, 11-triazatricyclo[6.4.0.0[2,6]]dodeca-1(12),2(6),8, 10-tetraene] showed an IC50 of less than 5 µM.

`NC(=O)CC[C@H]1CCCc2sc3ncnc(O[C@H]4CC[C@H](N)CC4)c3c21` [Compound I-153, 3-((R)-4-(((1r,4R)-4-aminocyclohexyl)oxy)-5,6,7,8-tetrahydrobenzo[4,5]thieno[2,3-d]pyrimidin-5-yl)propanamide] gave an IC50 of less than 5 µM.

For the compound `CN(C)[C@H]1CC[C@H](Oc2ncnc3sc4c(c23)[C@@H](CC(O)c2ncco2)CC4)CC1` (mixture of isomers) [Compound I-60, 2-[(3R)-12-[[4-(dimethylamino)cyclohexyl]oxy]-7-thia-9,11-diazatricyclo[6.4.0.0[2,6]]dodeca-1(8),2(6),9,11-tetraen-3-yl]-1-(1,3-oxazol-2-yl)ethan-1-ol], the IC50 is less than 5 µM.

Consider `CNC(=O)N1CCc2sc3ncnc(O[C@H]4CC[C@H](N(C)C)CC4)c3c2C1` [Compound I-169, 3-[[4-(dimethylamino)cyclohexyl]oxy]-N-methyl-8-thia-4,6,12-triazatricyclo[7.4.0.0[2,7]]trideca-1(9),2(7),3,5-tetraene-12-carboxamide], for which the IC50 is less than 5 µM.
